# Article PMC8968952, “Modulation of ERCC1-XPF Heterodimerization Inhibition via Structural Modification of Small Molecule Inhibitor Side-Chains” (Frontiers in Oncology, 2022)
# Assays:
# [1] = biological target: T1, ERCC1-XPF (Homo sapiens, UniProt Q92889); test: Microplate fluorescence incision assay (endonuclease activity); assay type: biochemical; settings: 10 μM inhibitor, 10 min preincubation
# T1 construct: the final purity of the full-length ERCC1-XPF heterodimer was determined to be ~35%; His6; made in house; host or cells: E. coli BL21(DE3)
# T1 sequence (Q92889 1-916): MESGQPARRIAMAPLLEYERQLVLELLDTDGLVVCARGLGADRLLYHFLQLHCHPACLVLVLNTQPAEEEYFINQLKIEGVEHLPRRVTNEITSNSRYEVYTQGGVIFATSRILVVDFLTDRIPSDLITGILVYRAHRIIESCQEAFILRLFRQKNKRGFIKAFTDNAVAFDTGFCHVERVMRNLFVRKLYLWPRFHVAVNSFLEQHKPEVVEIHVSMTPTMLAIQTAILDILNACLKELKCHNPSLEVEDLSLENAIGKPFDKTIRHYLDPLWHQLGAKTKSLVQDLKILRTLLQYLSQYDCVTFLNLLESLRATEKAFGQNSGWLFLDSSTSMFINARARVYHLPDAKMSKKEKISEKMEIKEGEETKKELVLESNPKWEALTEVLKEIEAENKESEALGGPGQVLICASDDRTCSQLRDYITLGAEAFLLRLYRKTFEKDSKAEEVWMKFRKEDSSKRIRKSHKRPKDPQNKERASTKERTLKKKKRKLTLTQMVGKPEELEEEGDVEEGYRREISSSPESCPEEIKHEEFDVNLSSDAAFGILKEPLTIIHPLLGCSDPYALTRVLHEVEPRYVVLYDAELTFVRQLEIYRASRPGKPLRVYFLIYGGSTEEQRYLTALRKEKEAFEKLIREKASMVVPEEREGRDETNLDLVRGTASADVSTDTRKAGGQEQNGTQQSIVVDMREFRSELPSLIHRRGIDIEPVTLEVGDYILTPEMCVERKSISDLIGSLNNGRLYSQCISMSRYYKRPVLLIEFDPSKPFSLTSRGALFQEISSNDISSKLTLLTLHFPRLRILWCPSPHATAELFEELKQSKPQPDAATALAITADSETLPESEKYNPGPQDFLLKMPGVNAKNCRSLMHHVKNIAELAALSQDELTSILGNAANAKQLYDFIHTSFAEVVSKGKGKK
# Excerpt: Recombinant human ERCC1–XPF wild-type protein (containing polyhistidine (His-6) tags) was expressed from a bicistronic plasmid (kindly provided by Dr. Richard Wood, University of Texas MD Anderson Cancer Center, Smithville, TX) in the E. coli BL21(DE3) strain, Following previously described procedures ([70], [78]) the proteins extracted from E. coli were eluted from a ProBond Nickel-Chelating Resin (Thermo Fisher Scientific) and then a Hi-trap heparin column (GE Healthcare). Fractions containing ERCC1–XPF were dialyzed, concentrated, and stored at −80°C in 10 mM HEPES, pH 7.4, 2.5 mM β-mercaptoethanol, 0.01% CHAPS, 0.25 mM EDTA, 50% glycerol, and 25 mM NaCl. Based on polyacrylamide gel separation and Coomassie Blue staining, the final purity of the full-length ERCC1-XPF heterodimer was determined to be ~35%.
# We employed a previously described protocol ([60], [70], [78]) in which the incision of the stem–loop substrate [6-FAM-5′-[…](20T)[…]-3′-dabcyl] (100 nM in 50 mM Tris-HCl, pH 8, 20 mM NaCl, 0.5 mM DDT, and 0.75 mM MnCl2) mediated by ERCC1-XPF (25 ng) in a total volume of 20 μL at 25°C was monitored by fluorescence using a FLUOstar Optima fluorimeter (BMG Labtech) with Optima software and excitation and emission wavelengths of 485 and 520 nm, respectively, for 5.5 min. The final concentration of inhibitor in the reaction was 10 μM prepared from a 200 μM stock solution in DMSO. With a molecular weight of 151 KDa for the XPF-ERCC1 heterodimer, a concentration of 25 ng of protein in 20 µl reaction buffer and a purity of 35%, the molar concentration of the enzyme was estimated to be 2.9 nM. Data were plotted using Microsoft Excel 2016.
# An in vitro fluorescence-based assay was used to assess the ability of the synthesized compounds to inhibit the endonuclease activity of ERCC1-XPF. This assay has been previously described ([60], [70], [78]) and makes use of a stem-loop DNA substrate with a 5’-FAM fluorescent dye, and a 3’-dabcyl quencher. When ERCC1-XPF can cleave the DNA substrate, a 5’-FAM containing molecule is liberated from the stem-loop (and the quencher) and the fluorescence of the solution increases. The increase of the fluorescence of the solution can be observed in Figure 3A , in the absence of any inhibitor. To determine the influence of the inhibitory compounds, the protein was preincubated for 10 minutes with 10 μM of each inhibitor prior to addition of the substrate.
# [2] = biological target: T2, ERCC1-XPF heterodimer in A549 cells (Homo sapiens, UniProt Q92889); design: method as in PMID 33399940; settings: cited from earlier work; for PLA: inhibition of the interaction between ERCC1 and XPF (in words): A549 cells treated with 20 μM cisplatin and 1 μM inhibitor
# T2 construct: endogenous in cells; host or cells: A549
# T2 sequence (Q92889 1-916): T1 sequence (Q92889 1-916)
# [3] = system: HCT-116 cells; test: Cellular repair of cyclobutane pyrimidine dimers (cellular NER) after UVC; assay type: cell-based, human; settings: 2 μM
# Experimental: We followed the protocol of Mirzayans et al. ([79]) with minor modifications as previously described ([70]). Inhibitor compounds were dissolved in DMSO and applied to a final DMSO concentration of 0.2% in media and 0.2% DMSO was used as the vehicle control. Mouse anti-thymine dimer monoclonal antibody (cat. no. MC-062, Kamiya Biomedical Company, Seattle, WA) was used for the immunofluorescence following UVC irradiation of the cells and fluorescent microscopic evaluation and measurement of fluorescence intensity were performed using MetaXpress, version 6.2.1.704, software (Molecular Devices, Sunnyvale, California). Data were plotted using GraphPad Prism version 5.04 software.
# Immunofluorescent detection of cyclobutane pyrimidine dimers (CPD) generated in the DNA of HCT-116 cells after exposure to UVC radiation was used to measure NER. Our observations that approximately 80% of CPD were removed 24 hours post irradiation in the absence of any inhibitors mirrors previous observations ([70], [79]).
# [4] = system: HCT-116 cells; test: Clonogenic survival assay, UV treatment; assay type: cell-based, human; settings: 0.5 μM
# Experimental: HCT-116 cells (100–800 cells depending on the UV dose) were plated in triplicate in 60-mm Petri dishes in DMEM/F12 medium. Following overnight attachment of the cells in a humidified atmosphere containing 5% CO2 at 37°C, the cells were treated with 0.5 μM compound 6 or 10 in DMSO (as described in section 2.7) for 4 h before the medium was removed, and the cells exposed to increasing doses (0–10 J/m^2) of UV-C radiation. The cells were then cultured for a further 24 h in the presence of inhibitor and then for an additional 9 days in the absence of inhibitor to allow for colony formation. Colonies were stained with crystal violet and counted using a Colcount instrument (Oxford Optronix, Abingdon UK) to facilitate determination of plating efficiency and surviving fraction. Data were plotted using GraphPad Prism version 5.04 software.
# [5] = system: HCT-116 cells; test: Clonogenic survival assay, cyclophosphamide treatment; assay type: cell-based, human
# Experimental: […] The medium was then replaced with drug and inhibitor-free fresh medium. After incubation for another 9 days to allow for colony formation, the plates were stained with crystal violet, colonies were counted, and plating efficiency and surviving fraction were calculated. Data were plotted using GraphPad Prism version 5.04. software.
smiles,measurement,setting,value
COCCN1CCN(Cc2cc(Nc3c4ccc(Cl)cc4nc4ccc(OC)cc34)ccc2O)CC1 [Compound 15],"inhibition of ERCC1-XPF endonuclease activity (in words, vs control and 4)",[1],some inhibition of ERCC1-XPF endonuclease activity
COc1ccc2nc3cc(Cl)ccc3c(Nc3ccc(O)c(CN4CCN(C)CC4)c3)c2c1 [Compound 1],PLA: inhibition of the interaction between ERCC1 and XPF (in words),[2],clear inhibition of the interaction between ERCC1 and XPF
CN(C)CCN1CCN(Cc2cc(Nc3c4ccc(Cl)cc4nc4ccc(O)cc34)ccc2O)CC1 [Compound 5],PLA: inhibition of the interaction between ERCC1 and XPF (in words),[2],clear inhibition of the interaction between ERCC1 and XPF
same,PLA: disruption of ERCC1-XPF heterodimerization (in words),"[2]; A549 not treated with cisplatin, 1 μM inhibitor",significant disruption of ERCC1-XPF heterodimerization
COc1ccc2nc3cc(Cl)ccc3c(Nc3ccc(O)c(CN4CCN(CCCN(C)C5Cc6ccccc6C5)CC4)c3)c2c1 [Compound 8],"inhibition of ERCC1-XPF endonuclease activity (in words, vs control and 4)",[1],some inhibition of ERCC1-XPF endonuclease activity
COc1ccc2nc3cc(Cl)ccc3c(Nc3ccc(O)c(CN4CCN(CCNCc5cccs5)CC4)c3)c2c1 [Compound 11],"inhibition of ERCC1-XPF endonuclease activity (in words, vs control and 4)",[1],some inhibition of ERCC1-XPF endonuclease activity
CNC(=O)C(C)(C)CN1CCN(Cc2cc(Nc3c4ccc(Cl)cc4nc4ccc(OC)cc34)ccc2O)CC1 [Compound 12],"inhibition of ERCC1-XPF endonuclease activity (in words, vs control and 4)",[1],some inhibition of ERCC1-XPF endonuclease activity
COc1ccc2nc3cc(Cl)ccc3c(Nc3ccc(O)c(CN4CCN(CCNCc5ccccc5)CC4)c3)c2c1 [Compound 10],"inhibition of ERCC1-XPF endonuclease activity (in words, vs control and 4)",[1],some inhibition of ERCC1-XPF endonuclease activity
same,effect on CPD removal / cellular NER (in words),[3],no significant effect on CPD removal
same,sensitization to UVC radiation (in words),[4],no sensitization of HCT-116 to UVC radiation
same,sensitization to cyclophosphamide (in words),"[5]; 0.5 μM 6, 10 at 1.0 μM or 0.5 μM",no significant sensitization of HCT-116 cells to cyclophosphamide
"O=P1(N(CCCl)CCCl)NCCCO1 (stereo not drawn) [cyclophosphamide, reference compound]","cell survival, cyclophosphamide alone","[5]; 50 μM cyclophosphamide, no inhibitor",91.5%
